Results as given in PubChem BioAssay AID1963437 (Molecular Pharmacology Branch, DTP, NCI, 2024).

Tested on: OVCAR-8 complex spheroid, growth inhibition
Assay: Anticancer human tumor OVCAR-8 cell line growth inhibition [Asc];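 also: spheroids exposed to agents for 7 days before readout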;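 as to viability, T/C: percent viability relative to DMSO vehicle wells taken as 100%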
Settings: for IC50: curve of first compound; for viability, T/C: stronger effect = lower value
Outline: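 Tumor cells were grown as complex spheroids with human endothelial cells (HUVEC) and human mesenchymal stem cells as stroma. Agents were tested alone and in combination, in half-log steps down from the clinical Cmax, or from 10 microM where Cmax was unknown.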

[1] = second compound 0.00316 µM, first compound 0.0316 µM
[2] = second compound 0.00316 µM, first compound 0.1 µM
[3] = second compound 0.00316 µM, first compound 0.316 µM
[4] = second compound 0.00316 µM, first compound 1 µM
[5] = second compound 0.00316 µM, first compound 3.16 µM
[6] = second compound 0.00316 µM, first compound 10 µM
[7] = second compound 0.01 µM, first compound 0.0316 µM
[8] = second compound 0.01 µM, first compound 0.1 µM
[9] = second compound 0.01 µM, first compound 0.316 µM
[10] = second compound 0.01 µM, first compound 1 µM
[11] = second compound 0.01 µM, first compound 3.16 µM
[12] = second compound 0.01 µM, first compound 10 µM
[13] = second compound 0.0316 µM, first compound 0.0316 µM
[14] = second compound 0.0316 µM, first compound 0.1 µM
[15] = second compound 0.0316 µM, first compound 0.316 µM
[16] = second compound 0.0316 µM, first compound 1 µM
[17] = second compound 0.0316 µM, first compound 3.16 µM
[18] = second compound 0.0316 µM, first compound 10 µM
[19] = second compound 0.1 µM, first compound 0.0316 µM
[20] = second compound 0.1 µM, first compound 0.1 µM
[21] = second compound 0.1 µM, first compound 0.316 µM
[22] = second compound 0.1 µM, first compound 1 µM
[23] = second compound 0.1 µM, first compound 3.16 µM
[24] = second compound 0.1 µM, first compound 10 µM
[25] = second compound 0.316 µM, first compound 0.0316 µM
[26] = second compound 0.316 µM, first compound 0.1 µM
[27] = second compound 0.316 µM, first compound 0.316 µM
[28] = second compound 0.316 µM, first compound 1 µM
[29] = second compound 0.316 µM, first compound 3.16 µM
[30] = second compound 0.316 µM, first compound 10 µM
[31] = second compound 1 µM, first compound 0.0316 µM
[32] = second compound 1 µM, first compound 0.1 µM
[33] = second compound 1 µM, first compound 0.316 µM
[34] = second compound 1 µM, first compound 1 µM
[35] = second compound 1 µM, first compound 3.16 µM
[36] = second compound 1 µM, first compound 10 µM

SMILES: C#Cc1c(F)ccc2cc(O)cc(-c3ncc4c(N5CC6CCC(C5)N6)nc(OCC56CCCN5CC(F)C6)nc4c3F)c12 (stereo unspecified) + CNC(C)C(=O)NC1CN(S(=O)(=O)c2cccc(S(=O)(=O)N3CCC4CCC(C(=O)NC(c5ccccc5)c5ccccc5)N4C(=O)C(NC(=O)C(C)NC)C3)c2)CCC2CCC(C(=O)NC(c3ccccc3)c3ccccc3)N2C1=O
- IC50 (second compound 0.00316 µM): > 10000 nM
- IC50 (second compound 0.01 µM): > 10000 nM
- IC50 (second compound 0.0316 µM): > 10000 nM
- IC50 (second compound 0.1 µM): > 10000 nM
- IC50 (second compound 0.316 µM): > 10000 nM
- IC50 (second compound 1 µM): > 10000 nM
- viability, T/C [1]: 106%
- viability, T/C [2]: 93.7%
- viability, T/C [3]: 87.8%
- viability, T/C [4]: 90.2%
- viability, T/C [5]: 101%
- viability, T/C [6]: 135%
- viability, T/C [7]: 104%
- viability, T/C [8]: 89.9%
- viability, T/C [9]: 91%
- viability, T/C [10]: 103%
- viability, T/C [11]: 96.4%
- viability, T/C [12]: 112%
- viability, T/C [13]: 89%
- viability, T/C [14]: 83.2%
- viability, T/C [15]: 83%
- viability, T/C [16]: 88.2%
- viability, T/C [17]: 96.4%
- viability, T/C [18]: 136%
- viability, T/C [19]: 80.6%
- viability, T/C [20]: 95.4%
- viability, T/C [21]: 88.4%
- viability, T/C [22]: 82.7%
- viability, T/C [23]: 85.8%
- viability, T/C [24]: 98.2%
- viability, T/C [25]: 74%
- viability, T/C [26]: 87.6%
- viability, T/C [27]: 80.2%
- viability, T/C [28]: 89.9%
- viability, T/C [29]: 77.1%
- viability, T/C [30]: 119%
- viability, T/C [31]: 80.9%
- viability, T/C [32]: 86.1%
- viability, T/C [33]: 112%
- viability, T/C [34]: 91.6%
- viability, T/C [35]: 88.5%
- viability, T/C [36]: 109%

SMILES: C=C(F)C(=O)N1CCN(c2nc(OCC3CCCN3C)nc3c2CCN(c2cccc4cccc(Cl)c24)C3)CC1CC#N (stereo unspecified) + CNC(C)C(=O)NC1CN(S(=O)(=O)c2cccc(S(=O)(=O)N3CCC4CCC(C(=O)NC(c5ccccc5)c5ccccc5)N4C(=O)C(NC(=O)C(C)NC)C3)c2)CCC2CCC(C(=O)NC(c3ccccc3)c3ccccc3)N2C1=O
- IC50 (second compound 0.00316 µM): 1630 nM
- IC50 (second compound 0.01 µM): 1720 nM
- IC50 (second compound 0.0316 µM): 1600 nM
- IC50 (second compound 0.1 µM): 958 nM
- IC50 (second compound 0.316 µM): 756 nM
- IC50 (second compound 1 µM): 639 nM
- viability, T/C [1]: 114%
- viability, T/C [2]: 103%
- viability, T/C [3]: 107%
- viability, T/C [4]: 83.1%
- viability, T/C [5]: 4.81%
- viability, T/C [6]: 0.78%
- viability, T/C [7]: 98.7%
- viability, T/C [8]: 94.6%
- viability, T/C [9]: 96%
- viability, T/C [10]: 91.2%
- viability, T/C [11]: 4.17%
- viability, T/C [12]: 0.22%
- viability, T/C [13]: 97.8%
- viability, T/C [14]: 94.1%
- viability, T/C [15]: 96.1%
- viability, T/C [16]: 81.9%
- viability, T/C [17]: 3.55%
- viability, T/C [18]: 0.26%
- viability, T/C [19]: 83.1%
- viability, T/C [20]: 100%
- viability, T/C [21]: 95.7%
- viability, T/C [22]: 48.3%
- viability, T/C [23]: 3.72%
- viability, T/C [24]: 0.27%
- viability, T/C [25]: 90%
- viability, T/C [26]: 89.9%
- viability, T/C [27]: 106%
- viability, T/C [28]: 35.4%
- viability, T/C [29]: 3.15%
- viability, T/C [30]: 0.66%
- viability, T/C [31]: 78%
- viability, T/C [32]: 90.7%
- viability, T/C [33]: 97.1%
- viability, T/C [34]: 25.4%
- viability, T/C [35]: 2.44%
- viability, T/C [36]: 0.35%

SMILES: CCN1C(C(=O)NC23CCC(C(=O)O)(CC2)CC3)C(c2cccc(Cl)c2F)C2(C(=O)Nc3cc(Cl)ccc32)C12CCCCC2 (stereo unspecified) + CNC(C)C(=O)NC1CN(S(=O)(=O)c2cccc(S(=O)(=O)N3CCC4CCC(C(=O)NC(c5ccccc5)c5ccccc5)N4C(=O)C(NC(=O)C(C)NC)C3)c2)CCC2CCC(C(=O)NC(c3ccccc3)c3ccccc3)N2C1=O
- IC50 (second compound 0.00316 µM): > 3000 nM
- IC50 (second compound 0.01 µM): > 3000 nM
- IC50 (second compound 0.0316 µM): > 3000 nM
- IC50 (second compound 0.1 µM): > 3000 nM
- IC50 (second compound 0.316 µM): > 3000 nM
- IC50 (second compound 1 µM): > 3000 nM
- viability, T/C (second compound 0.00316 µM, first compound 0.00949 µM): 119%
- viability, T/C (second compound 0.00316 µM, first compound 0.03 µM): 96.5%
- viability, T/C (second compound 0.00316 µM, first compound 0.0949 µM): 104%
- viability, T/C (second compound 0.00316 µM, first compound 0.3 µM): 97.9%
- viability, T/C (second compound 0.00316 µM, first compound 0.949 µM): 106%
- viability, T/C (second compound 0.00316 µM, first compound 3 µM): 110%
- viability, T/C (second compound 0.01 µM, first compound 0.00949 µM): 98.4%
- viability, T/C (second compound 0.01 µM, first compound 0.03 µM): 91.1%
- viability, T/C (second compound 0.01 µM, first compound 0.0949 µM): 95%
- viability, T/C (second compound 0.01 µM, first compound 0.3 µM): 84.8%
- viability, T/C (second compound 0.01 µM, first compound 0.949 µM): 105%
- viability, T/C (second compound 0.01 µM, first compound 3 µM): 107%
- viability, T/C (second compound 0.0316 µM, first compound 0.00949 µM): 85.4%
- viability, T/C (second compound 0.0316 µM, first compound 0.03 µM): 86.9%
- viability, T/C (second compound 0.0316 µM, first compound 0.0949 µM): 92.7%
- viability, T/C (second compound 0.0316 µM, first compound 0.3 µM): 102%
- viability, T/C (second compound 0.0316 µM, first compound 0.949 µM): 102%
- viability, T/C (second compound 0.0316 µM, first compound 3 µM): 118%
- viability, T/C (second compound 0.1 µM, first compound 0.00949 µM): 85.3%
- viability, T/C (second compound 0.1 µM, first compound 0.03 µM): 78.3%
- viability, T/C (second compound 0.1 µM, first compound 0.0949 µM): 99.8%
- viability, T/C (second compound 0.1 µM, first compound 0.3 µM): 88.1%
- viability, T/C (second compound 0.1 µM, first compound 0.949 µM): 118%
- viability, T/C (second compound 0.1 µM, first compound 3 µM): 103%
- viability, T/C (second compound 0.316 µM, first compound 0.00949 µM): 98.8%
- viability, T/C (second compound 0.316 µM, first compound 0.03 µM): 86.5%
- viability, T/C (second compound 0.316 µM, first compound 0.0949 µM): 90.2%
- viability, T/C (second compound 0.316 µM, first compound 0.3 µM): 78.3%
- viability, T/C (second compound 0.316 µM, first compound 0.949 µM): 90.4%
- viability, T/C (second compound 0.316 µM, first compound 3 µM): 97.5%
- viability, T/C (second compound 1 µM, first compound 0.00949 µM): 80.5%
- viability, T/C (second compound 1 µM, first compound 0.03 µM): 79.2%
- viability, T/C (second compound 1 µM, first compound 0.0949 µM): 95.7%
- viability, T/C (second compound 1 µM, first compound 0.3 µM): 84.2%
- viability, T/C (second compound 1 µM, first compound 0.949 µM): 93.3%
- viability, T/C (second compound 1 µM, first compound 3 µM): 112%
